One assay concerns the target HRH4 (Homo sapiens, UniProt Q9H3N8). Kind of assay: PathHunter beta-arrestin recruitment assay in a recombinant reporter cell line, commercial standard, dose-response. The assay is classed as cell-based.
The target of assay [1] is T1, brain angiogenesis factor 1 (BAI1) receptor (Homo sapiens, UniProt O14514).
T1 construct: gene ADGRB1
Kind of assay: PathHunter beta-arrestin recruitment assay in a recombinant reporter cell line, dose-response. The format is cell-based.

A further assay addresses FFAR1 (Homo sapiens, UniProt O14842). Kind of assay: cell-based. Also noted: species or system recombinant GPCR reporter cell lines; PathHunter beta-arrestin recruitment (beta-galactosidase complementation), chemiluminescence, agonist mode, Eurofins DiscoverX.
In assay [2] the target is T2, urotensin 2 receptor (UTR2) (Homo sapiens, UniProt Q9UKP6).
T2 construct: gene UTS2R
T2 sequence (Q9UKP6 1-389): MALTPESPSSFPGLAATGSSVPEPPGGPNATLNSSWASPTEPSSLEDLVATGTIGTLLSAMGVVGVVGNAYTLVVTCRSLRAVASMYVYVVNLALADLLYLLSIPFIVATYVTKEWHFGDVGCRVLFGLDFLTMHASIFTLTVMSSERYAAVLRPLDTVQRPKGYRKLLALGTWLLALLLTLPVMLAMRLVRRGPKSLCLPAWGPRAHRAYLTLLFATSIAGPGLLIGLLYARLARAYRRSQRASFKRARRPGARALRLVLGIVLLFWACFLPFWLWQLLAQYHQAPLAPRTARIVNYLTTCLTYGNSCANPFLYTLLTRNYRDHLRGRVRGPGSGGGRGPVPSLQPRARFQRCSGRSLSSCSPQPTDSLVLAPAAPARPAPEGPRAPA
Kind of assay: PathHunter beta-arrestin recruitment assay in a recombinant reporter cell line, dose-response. The assay is classed as cell-based.

The target in assay [3] is T3, neuromedin receptor 1 (NMU1R) (Homo sapiens, UniProt Q9HB89).
T3 construct: gene NMUR1
T3 sequence (Q9HB89 1-426): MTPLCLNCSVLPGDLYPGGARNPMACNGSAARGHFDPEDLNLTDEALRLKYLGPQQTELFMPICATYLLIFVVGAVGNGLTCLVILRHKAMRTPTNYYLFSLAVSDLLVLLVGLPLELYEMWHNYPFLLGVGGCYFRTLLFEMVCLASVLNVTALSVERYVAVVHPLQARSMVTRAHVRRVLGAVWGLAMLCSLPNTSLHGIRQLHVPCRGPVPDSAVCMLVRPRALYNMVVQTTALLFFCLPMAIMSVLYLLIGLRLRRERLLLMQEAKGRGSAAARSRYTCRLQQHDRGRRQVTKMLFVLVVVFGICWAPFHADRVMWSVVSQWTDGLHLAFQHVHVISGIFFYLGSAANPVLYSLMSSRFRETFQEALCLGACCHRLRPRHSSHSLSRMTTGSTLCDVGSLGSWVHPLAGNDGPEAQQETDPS
The assay is described as above. The assay is classed as cell-based.

The target of another assay is T4, GPR119 (Homo sapiens, UniProt Q8TDV5).
T4 sequence (Q8TDV5 1-335): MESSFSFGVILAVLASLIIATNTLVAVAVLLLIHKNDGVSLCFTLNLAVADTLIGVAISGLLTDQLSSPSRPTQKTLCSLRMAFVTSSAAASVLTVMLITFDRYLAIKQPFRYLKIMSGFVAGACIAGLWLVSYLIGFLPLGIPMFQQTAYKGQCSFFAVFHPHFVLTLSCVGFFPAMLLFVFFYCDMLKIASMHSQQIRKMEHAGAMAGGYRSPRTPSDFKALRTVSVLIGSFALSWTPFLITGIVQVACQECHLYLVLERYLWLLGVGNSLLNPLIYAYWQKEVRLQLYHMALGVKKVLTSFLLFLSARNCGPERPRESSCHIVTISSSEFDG
Nature of the assay: cell-based. Details: species or system recombinant GPCR reporter cell lines; PathHunter beta-arrestin recruitment (beta-galactosidase complementation), chemiluminescence, agonist mode, Eurofins DiscoverX.

A further assay has as its target T5, PTHR2 (Homo sapiens, UniProt P49190).
T5 construct: gene PTH2R
Nature of the assay: cell-based. Details: species or system recombinant GPCR reporter cell lines; PathHunter beta-arrestin recruitment (beta-galactosidase complementation), chemiluminescence, agonist mode, Eurofins DiscoverX.

The next assay addresses OXER1 (Homo sapiens, UniProt Q8TDS5). Nature of the assay: cell-based. Details: species or system recombinant GPCR reporter cell lines; PathHunter beta-arrestin recruitment (beta-galactosidase complementation), chemiluminescence, agonist mode, Eurofins DiscoverX.
Another assay addresses PTGIR (Homo sapiens, UniProt P43119). Kind of assay: cell-based. Details: species or system recombinant GPCR reporter cell lines; PathHunter beta-arrestin recruitment (beta-galactosidase complementation), chemiluminescence, agonist mode, Eurofins DiscoverX.
The target in assay [4] is T6, GPR109B (Homo sapiens, UniProt P49019).
T6 construct: gene HCAR3
T6 sequence (P49019 whole entry): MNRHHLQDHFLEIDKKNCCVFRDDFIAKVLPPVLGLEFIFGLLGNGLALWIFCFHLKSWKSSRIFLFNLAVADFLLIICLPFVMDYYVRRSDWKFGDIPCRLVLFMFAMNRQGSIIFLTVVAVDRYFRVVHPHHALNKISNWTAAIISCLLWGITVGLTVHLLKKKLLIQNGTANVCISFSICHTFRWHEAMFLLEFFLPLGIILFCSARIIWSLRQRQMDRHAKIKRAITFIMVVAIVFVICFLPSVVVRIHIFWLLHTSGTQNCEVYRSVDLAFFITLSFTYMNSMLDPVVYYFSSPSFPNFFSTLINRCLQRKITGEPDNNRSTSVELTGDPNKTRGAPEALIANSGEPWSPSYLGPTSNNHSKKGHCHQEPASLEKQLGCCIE
Kind of assay: PathHunter beta-arrestin recruitment assay in a recombinant reporter cell line, dose-response. The format is cell-based.

Another assay deals with T7, CRTH2 (Homo sapiens, UniProt Q9Y5Y4).
T7 construct: gene PTGDR2
T7 sequence (Q9Y5Y4 1-395): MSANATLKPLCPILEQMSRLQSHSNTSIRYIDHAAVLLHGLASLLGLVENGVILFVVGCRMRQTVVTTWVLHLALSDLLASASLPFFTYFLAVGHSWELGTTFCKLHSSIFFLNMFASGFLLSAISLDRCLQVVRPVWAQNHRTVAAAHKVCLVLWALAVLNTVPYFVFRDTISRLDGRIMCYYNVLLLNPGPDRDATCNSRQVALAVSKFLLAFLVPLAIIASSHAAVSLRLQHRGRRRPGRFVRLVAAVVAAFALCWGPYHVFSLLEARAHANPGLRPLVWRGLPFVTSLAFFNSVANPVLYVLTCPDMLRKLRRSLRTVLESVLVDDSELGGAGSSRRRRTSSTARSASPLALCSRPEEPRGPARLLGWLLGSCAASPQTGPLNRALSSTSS
Kind of assay: cell-based. Details: species or system recombinant GPCR reporter cell lines; PathHunter beta-arrestin recruitment (beta-galactosidase complementation), chemiluminescence, agonist mode, Eurofins DiscoverX.

The target in a further assay is T8, MRGPRX2 (Homo sapiens, UniProt Q96LB1).
T8 sequence (Q96LB1 1-330): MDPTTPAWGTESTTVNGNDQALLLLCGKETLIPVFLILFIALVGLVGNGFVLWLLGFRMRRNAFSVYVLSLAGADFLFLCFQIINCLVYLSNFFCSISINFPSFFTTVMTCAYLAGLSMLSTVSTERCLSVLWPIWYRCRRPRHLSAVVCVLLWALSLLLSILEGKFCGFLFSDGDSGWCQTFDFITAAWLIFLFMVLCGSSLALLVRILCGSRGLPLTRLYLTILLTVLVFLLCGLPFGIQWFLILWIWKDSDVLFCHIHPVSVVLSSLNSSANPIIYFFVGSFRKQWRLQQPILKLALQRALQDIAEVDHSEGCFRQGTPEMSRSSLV
Kind of assay: cell-based. Details: species or system recombinant GPCR reporter cell lines; PathHunter beta-arrestin recruitment (beta-galactosidase complementation), chemiluminescence, agonist mode, Eurofins DiscoverX.

The target of the next assay is KISS1R (Homo sapiens, UniProt Q969F8). Kind of assay: cell-based. Details: species or system recombinant GPCR reporter cell lines; PathHunter beta-arrestin recruitment (beta-galactosidase complementation), chemiluminescence, agonist mode, Eurofins DiscoverX.
Sequence of KISS1R (Q969F8 whole entry): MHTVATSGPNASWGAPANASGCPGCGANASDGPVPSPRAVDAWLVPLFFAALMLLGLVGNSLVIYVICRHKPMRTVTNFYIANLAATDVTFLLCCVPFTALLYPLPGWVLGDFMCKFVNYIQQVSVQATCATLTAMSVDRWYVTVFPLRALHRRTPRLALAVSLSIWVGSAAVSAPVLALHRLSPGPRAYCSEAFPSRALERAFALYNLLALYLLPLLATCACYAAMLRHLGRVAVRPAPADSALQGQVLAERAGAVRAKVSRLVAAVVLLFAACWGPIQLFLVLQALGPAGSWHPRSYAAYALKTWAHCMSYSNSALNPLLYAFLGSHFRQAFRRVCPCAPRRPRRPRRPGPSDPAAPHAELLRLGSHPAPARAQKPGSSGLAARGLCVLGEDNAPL
The next assay deals with T9, EBI2 (Homo sapiens, UniProt P32249).
T9 construct: gene GPR183
T9 sequence (P32249 whole entry): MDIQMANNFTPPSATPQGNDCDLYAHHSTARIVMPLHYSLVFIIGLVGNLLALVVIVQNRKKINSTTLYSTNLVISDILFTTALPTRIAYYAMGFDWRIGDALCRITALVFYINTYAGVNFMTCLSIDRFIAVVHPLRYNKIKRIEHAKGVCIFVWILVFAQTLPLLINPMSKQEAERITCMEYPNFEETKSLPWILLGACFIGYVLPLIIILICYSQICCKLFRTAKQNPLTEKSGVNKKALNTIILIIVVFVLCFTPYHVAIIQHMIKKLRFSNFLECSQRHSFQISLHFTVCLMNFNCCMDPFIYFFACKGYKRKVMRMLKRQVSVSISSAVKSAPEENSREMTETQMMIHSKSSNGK
Kind of assay: cell-based. Details: species or system recombinant GPCR reporter cell lines; PathHunter beta-arrestin recruitment (beta-galactosidase complementation), chemiluminescence, agonist mode, Eurofins DiscoverX. The note with it: agonist; read-out: RC50 (the source's name).

In assay [5] the target is T6, GPR109B. Nature of the assay: PathHunter beta-arrestin recruitment assay, dose-response of the known agonist. The format is cell-based. From the text:
PathHunter beta-arrestin recruitment assay, dose-response of the known agonist on GPR109B | This previously unknown GPR109B agonist elicited a similar GPCR response to 3-hydroxyoctanoic acid

The structures appear in SMILES notation. pEC50: −log10 of the molar value. Where a SMILES comes first, the peptide text is derived from it. Bridges are numbered along the chain shown (N, C = ends). [ ]: non-standard residue; d: D form.

Sequence of FFAR1 (O14842 whole entry): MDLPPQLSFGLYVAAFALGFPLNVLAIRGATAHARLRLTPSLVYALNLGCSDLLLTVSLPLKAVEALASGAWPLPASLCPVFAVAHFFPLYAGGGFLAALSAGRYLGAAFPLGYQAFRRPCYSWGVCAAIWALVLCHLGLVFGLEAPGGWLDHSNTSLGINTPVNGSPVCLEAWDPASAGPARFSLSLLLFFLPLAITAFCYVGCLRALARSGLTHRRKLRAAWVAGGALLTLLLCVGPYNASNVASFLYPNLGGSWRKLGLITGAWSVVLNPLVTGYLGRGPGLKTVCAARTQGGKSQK
Sequence of PTGIR (P43119 whole entry): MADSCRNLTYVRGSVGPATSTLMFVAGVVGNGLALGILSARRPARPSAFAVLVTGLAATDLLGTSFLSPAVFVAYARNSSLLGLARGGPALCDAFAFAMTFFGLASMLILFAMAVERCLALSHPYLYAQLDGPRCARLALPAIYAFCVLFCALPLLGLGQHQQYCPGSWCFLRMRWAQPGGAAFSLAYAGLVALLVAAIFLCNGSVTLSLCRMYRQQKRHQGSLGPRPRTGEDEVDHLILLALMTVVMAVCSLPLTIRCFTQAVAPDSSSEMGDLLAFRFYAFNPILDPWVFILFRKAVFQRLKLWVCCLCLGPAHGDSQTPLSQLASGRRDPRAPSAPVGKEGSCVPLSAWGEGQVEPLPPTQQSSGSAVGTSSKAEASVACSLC
T1 sequence (O14514 31-1584): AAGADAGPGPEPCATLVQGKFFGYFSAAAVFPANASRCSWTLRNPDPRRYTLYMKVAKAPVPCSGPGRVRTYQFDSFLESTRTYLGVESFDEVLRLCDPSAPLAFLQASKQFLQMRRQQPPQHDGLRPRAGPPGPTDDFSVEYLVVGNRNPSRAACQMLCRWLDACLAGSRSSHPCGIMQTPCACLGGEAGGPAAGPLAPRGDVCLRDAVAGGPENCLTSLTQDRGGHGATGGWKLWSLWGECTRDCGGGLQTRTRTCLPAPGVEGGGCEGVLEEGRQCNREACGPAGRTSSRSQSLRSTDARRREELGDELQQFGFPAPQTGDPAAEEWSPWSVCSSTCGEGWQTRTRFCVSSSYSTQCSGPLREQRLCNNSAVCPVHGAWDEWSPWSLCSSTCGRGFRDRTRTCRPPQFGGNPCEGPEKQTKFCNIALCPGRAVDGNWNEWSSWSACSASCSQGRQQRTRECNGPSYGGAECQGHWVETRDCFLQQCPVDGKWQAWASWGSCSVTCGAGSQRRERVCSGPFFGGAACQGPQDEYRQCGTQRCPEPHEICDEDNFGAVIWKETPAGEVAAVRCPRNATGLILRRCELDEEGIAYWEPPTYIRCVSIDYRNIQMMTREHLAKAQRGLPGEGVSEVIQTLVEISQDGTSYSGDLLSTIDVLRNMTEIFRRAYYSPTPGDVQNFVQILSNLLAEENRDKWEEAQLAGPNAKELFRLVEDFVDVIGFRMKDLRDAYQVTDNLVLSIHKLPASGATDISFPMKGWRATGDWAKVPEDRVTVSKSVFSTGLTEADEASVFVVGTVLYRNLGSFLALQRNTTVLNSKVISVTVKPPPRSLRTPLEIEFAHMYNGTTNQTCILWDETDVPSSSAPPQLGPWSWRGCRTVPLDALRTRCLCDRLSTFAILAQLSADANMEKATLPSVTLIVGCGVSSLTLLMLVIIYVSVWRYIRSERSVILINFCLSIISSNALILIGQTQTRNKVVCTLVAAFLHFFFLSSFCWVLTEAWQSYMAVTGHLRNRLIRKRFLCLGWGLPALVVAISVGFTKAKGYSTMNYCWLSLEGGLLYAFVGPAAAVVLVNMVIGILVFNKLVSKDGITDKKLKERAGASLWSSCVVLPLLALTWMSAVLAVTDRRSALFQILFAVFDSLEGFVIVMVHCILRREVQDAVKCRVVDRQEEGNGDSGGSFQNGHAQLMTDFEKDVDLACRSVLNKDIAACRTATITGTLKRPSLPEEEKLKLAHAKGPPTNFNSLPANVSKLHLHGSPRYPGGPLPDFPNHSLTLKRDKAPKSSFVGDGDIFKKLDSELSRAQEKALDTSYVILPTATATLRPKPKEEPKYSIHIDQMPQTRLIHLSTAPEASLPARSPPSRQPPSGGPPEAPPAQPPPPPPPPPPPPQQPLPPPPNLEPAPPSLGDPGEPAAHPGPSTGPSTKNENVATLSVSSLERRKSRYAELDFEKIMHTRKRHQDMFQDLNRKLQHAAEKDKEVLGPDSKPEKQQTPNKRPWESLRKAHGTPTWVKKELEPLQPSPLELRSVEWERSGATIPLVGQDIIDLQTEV
T5 sequence (P49190 whole entry): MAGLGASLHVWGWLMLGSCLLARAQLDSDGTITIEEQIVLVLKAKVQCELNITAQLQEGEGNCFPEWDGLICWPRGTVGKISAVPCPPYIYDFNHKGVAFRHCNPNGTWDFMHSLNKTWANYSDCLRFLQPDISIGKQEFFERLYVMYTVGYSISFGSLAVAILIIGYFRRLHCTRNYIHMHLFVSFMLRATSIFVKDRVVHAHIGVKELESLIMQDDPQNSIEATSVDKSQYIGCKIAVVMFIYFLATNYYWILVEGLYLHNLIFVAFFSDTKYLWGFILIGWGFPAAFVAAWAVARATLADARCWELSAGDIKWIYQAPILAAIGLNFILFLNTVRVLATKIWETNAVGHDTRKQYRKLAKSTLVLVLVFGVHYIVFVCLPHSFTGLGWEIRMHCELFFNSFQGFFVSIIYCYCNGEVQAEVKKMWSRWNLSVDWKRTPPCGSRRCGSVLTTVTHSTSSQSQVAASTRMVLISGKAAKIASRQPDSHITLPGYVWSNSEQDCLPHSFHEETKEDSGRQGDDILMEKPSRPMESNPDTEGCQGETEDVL
Sequence of HRH4 (Q9H3N8 whole entry): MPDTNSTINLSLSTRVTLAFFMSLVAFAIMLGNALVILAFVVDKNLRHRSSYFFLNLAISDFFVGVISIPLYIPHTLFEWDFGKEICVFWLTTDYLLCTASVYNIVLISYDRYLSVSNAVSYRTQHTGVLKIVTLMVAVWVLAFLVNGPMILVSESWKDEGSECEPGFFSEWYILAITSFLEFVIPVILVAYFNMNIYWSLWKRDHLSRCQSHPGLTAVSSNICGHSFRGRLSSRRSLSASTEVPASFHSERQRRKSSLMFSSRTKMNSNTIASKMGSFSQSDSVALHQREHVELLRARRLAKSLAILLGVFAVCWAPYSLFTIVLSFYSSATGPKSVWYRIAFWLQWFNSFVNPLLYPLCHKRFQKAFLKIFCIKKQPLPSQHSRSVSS
Sequence of OXER1 (Q8TDS5 whole entry): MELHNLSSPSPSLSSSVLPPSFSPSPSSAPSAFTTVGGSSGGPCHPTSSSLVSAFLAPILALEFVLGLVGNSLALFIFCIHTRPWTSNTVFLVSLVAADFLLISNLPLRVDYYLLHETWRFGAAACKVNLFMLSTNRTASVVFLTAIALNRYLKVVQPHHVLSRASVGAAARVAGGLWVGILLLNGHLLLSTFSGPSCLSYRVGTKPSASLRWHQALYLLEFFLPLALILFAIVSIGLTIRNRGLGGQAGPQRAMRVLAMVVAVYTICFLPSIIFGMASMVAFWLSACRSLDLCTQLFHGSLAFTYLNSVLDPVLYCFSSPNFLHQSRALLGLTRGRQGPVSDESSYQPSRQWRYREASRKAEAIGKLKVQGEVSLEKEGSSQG

Take `NCCCCCN` [cadaverine]: on HRH4, the pEC50 was 5.96. Regarding `CCCCCCC1CC1CCCCCCCC(=O)O` (stereo not drawn) [9,10-methylenehexadecanoic acid, cis-9,10-methylenehexadecanoic acid], in [1], the pEC50 is 4.96. `O=C(O)CCc1ccc(NCc2cccc(Oc3ccccc3)c2)cc1` [GW9508]: the pEC50 at FFAR1 was 6.54.

As for `CCC(C)CCCCCCCCCCC(=O)O` (stereo not drawn) [aiC15:0, 12-methyltetradecanoic acid], the figures for the pEC50 in assay [2] and in [3] were 3.72 and 3.90, respectively. `CCCCCCCC/C=C\CCCCCCCC(=O)NCCO` [Oleoyl Ethanolamide]: on GPR119, the pEC50 is 5.76. For `CCCCC#CCCCCCCCC(=O)OC` [TIP-39], on PTHR2, the pEC50 is 9.07.

With `CCCCC/C=C\C/C=C\C/C=C\C=C\C(=O)CCCC(=O)O` [5-OxoETE], at OXER1, the pEC50 is 6.16. For `CC#CCC(C)[C@H](O)/C=C/[C@@H]1[C@H]2c3cccc(CCCC(=O)O)c3O[C@H]2C[C@H]1O` (mixture of isomers) [Beraprost], the pEC50 on PTGIR was 6.51. In the case of `O=C(O)CCc1ccccc1` [phenylpropanoic acid], the pEC50 at GPR109B [4] was 3.68. On to `CCCCC[C@H](O)/C=C/[C@H]1C(=O)C[C@H](O)[C@@H]1C/C=C\CCCC(=O)O` [PGD2], for which the pEC50 on CRTH2 is 7.71. `C[C@@H](O)[C@@H]1NC(=O)[C@@H](CCCCN)NC(=O)[C@H](Cc2c[nH]c3ccccc23)NC(=O)[C@H](Cc2ccccc2)NC(=O)[C@H](Cc2ccccc2)NC(=O)[C@H](CC(N)=O)NC(=O)[C@H](CCCCN)NC(=O)[C@@H](NC(=O)[C@@H]2CCCN2)CSSC[C@@H](C(=O)N[C@@H](CCCCN)C(=O)O)NC(=O)[C@H](CO)NC(=O)[C@H](CO)NC(=O)[C@@H](Cc2ccccc2)NC1=O` [Cortistatin 14] (H-PCKNFFW[dK]T[dF]SSCK-OH; disulfide 2-13): at MRGPRX2, the pEC50 is 6.20. With `CC(C)C[C@H](NC(=O)CNC(=O)[C@H](Cc1ccccc1)NC(=O)[C@H](CO)NC(=O)[C@H](CC(N)=O)NC(=O)[C@H](Cc1c[nH]c2ccccc12)NC(=O)[C@H](CC(N)=O)NC(=O)[C@@H](N)Cc1ccc(O)cc1)C(=O)N[C@@H](CCCNC(=N)N)C(=O)N[C@@H](Cc1ccccc1)C(N)=O` [Kisspeptin-10], the pEC50 at KISS1R is 7.93. Consider `C[C@H](CCCC(C)(C)O)[C@H]1CC[C@H]2[C@@H]3[C@H](O)C=C4C[C@@H](O)CC[C@]4(C)[C@H]3CC[C@]12C` [7a,25-Dihydroxycholesterol], for which the pEC50 at EBI2 was 6.72.

In turn, `CCCCCC(O)CC(=O)O` (stereo not drawn) [3-hydroxyoctanoic acid] showed a pEC50 at GPR109B [5] of 3.52.

(Values after paper PMC6706627, “Mapping Interactions of Microbial Metabolites with Human G-Protein-Coupled Receptors” (Cell Host & Microbe, 2019).)
